In the supplement of paper PMC5303821, “Major sulfonate transporter Soa1 in Saccharomyces cerevisiae and considerable substrate diversity in its fungal family” (Nature Communications, 2017):

How the values were obtained:
Settings in all cases: sulfur source concentration 200 µM; S. cerevisiae S288C/BY sul1Δ sul2Δ soa1Δ with transporter ortholog inserted at SOA1 locus; sulfur-free B medium, 4% glucose, pH 6.5, sole sulfur source
[1] = test system: Saccharomyces eubayanus_SOA2; assay: maximal culture density with compound as sole sulfur source (OD600); higher = better growth
Description: (§1)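 S. cerevisiae sul1Δ sul2Δ soa1Δ strains expressing 20 fungal SOA1 orthologs (or no transporter, 'soa1 del') were grown in liquid sulfur-free B medium, 4% glucose, pH 6.5 (7 mM K2HPO4). The strains were sulfur-starved for 3 days beforehand. Each sulfur compound was the sole sulfur source at 200 µM (sulfate also at 40 mM). OD600 curves of duplicate cultures were averaged and fitted (logistic / Richards, GroFit) to give maximal growth rate, maximal density and lag phase; temperature not stated.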

[2] = test system: Saccharomyces uvarum_SOA2; assay: as above
Description: as §1

[3] = test system: Aspergillus nidulans_XP_661711; assay: as above
Description: as §1

[4] = test system: Aspergillus nidulans_XP_660563; assay: as above
Description: as §1

[5] = test system: Ogataea parapolymorpha_XP_013932458; assay: as above
Description: as §1

[6] = test system: Metarhizium robertsii_XP_007821441; assay: as above
Description: as §1

soa1 del [7] = assay: as above
Description: as §1

[8] = test system: Ogataea parapolymorpha_XP_013936897; assay: as above
Description: as §1

[9] = test system: Metarhizium robertsii_XP_007823832; assay: as above
Description: as §1

[10] = test system: Fusarium oxysporum_ENH65823; assay: as above
Description: as §1

[11] = test system: Aspergillus nidulans_XP_660670; assay: as above
Description: as §1

[12] = test system: Aspergillus nidulans (IAM 2006)_astA; assay: as above
Description: as §1

[13] = test system: Saccharomyces eubayanus_SOA1; assay: as above
Description: as §1

[14] = test system: Aspergillus nidulans_CBF80346; assay: as above
Description: as §1

[15] = test system: Aspergillus nidulans_CBF74694; assay: as above
Description: as §1

[16] = test system: Aspergillus nidulans_XP_681611; assay: as above
Description: as §1

[17] = test system: Ogataea parapolymorpha_XP_013935289; assay: as above
Description: as §1

[18] = test system: Metarhizium robertsii_XP_007822519; assay: as above
Description: as §1

[19] = test system: Saccharomyces uvarum_SOA1; assay: as above
Description: as §1

[20] = test system: Aspergillus nidulans_XP_661733; assay: as above
Description: as §1

[21] = test system: Saccharomyces cerevisiae_SOA1; assay: as above
Description: as §1

[22] = test system: Saccharomyces eubayanus_SOA2; assay: maximal growth rate with compound as sole sulfur source (OD600 per h); higher = better growth / uptake of the sulfur source
Description: as §1

[23] = test system: Aspergillus nidulans_XP_661711; assay: as above
Description: as §1

[24] = test system: Aspergillus nidulans_XP_660563; assay: as above
Description: as §1

soa1 del [25] = assay: as above
Description: as §1

[26] = test system: Ogataea parapolymorpha_XP_013936897; assay: as above
Description: as §1

[27] = test system: Metarhizium robertsii_XP_007823832; assay: as above
Description: as §1

[28] = test system: Fusarium oxysporum_ENH65823; assay: as above
Description: as §1

[29] = test system: Aspergillus nidulans_XP_660670; assay: as above
Description: as §1

[30] = test system: Aspergillus nidulans (IAM 2006)_astA; assay: as above
Description: as §1

[31] = test system: Aspergillus nidulans_XP_681611; assay: as above
Description: as §1

[32] = test system: Metarhizium robertsii_XP_007822519; assay: as above
Description: as §1

[33] = test system: Saccharomyces uvarum_SOA1; assay: as above
Description: as §1

[34] = test system: Aspergillus nidulans_XP_661733; assay: as above
Description: as §1

[35] = test system: Saccharomyces cerevisiae_SOA1; assay: as above
Description: as §1

Work on `CCCS(=O)(=O)O` [Propanesulfonate] yielded a maximal culture density [1] of 1.7, a maximal culture density [2] of 1.69 and a maximal culture density [3] of 0.232. It also gave a maximal culture density [4] of 0.327, a maximal culture density [5] of 0.243 and a maximal culture density [6] of 0.263. For the same compound, the maximal culture density (soa1 del [7]) was 0.212, the maximal culture density [8] was 0.296 and the maximal culture density [9] was 0.507. It also gave a maximal culture density [10] of 0.232, a maximal culture density [11] of 0.231 and a maximal culture density [12] of 0.486. The maximal culture density [13] was 1.56, the maximal culture density [14] was 0.212 and the maximal culture density [15] was 0.192. The maximal culture density [16] was 0.35, the maximal culture density [17] was 1.59 and the maximal culture density [18] was 1.88. For the same compound, the maximal culture density [19] was 1.56, the maximal culture density [20] was 0.249 and the maximal culture density [21] was 1.6. It also gave a maximal growth rate [22] of 0.0792, a maximal growth rate [23] of 0.00399 and a maximal growth rate [24] of 0.00627. The maximal growth rate (soa1 del [25]) was 0.00415, the maximal growth rate [26] was 0.00486 and the maximal growth rate [27] was 0.0143. For the same compound, the maximal growth rate [28] was 0.00365, the maximal growth rate [29] was 0.00401 and the maximal growth rate [30] was 0.0176. For the same compound, the maximal growth rate [31] was 0.00692, the maximal growth rate [32] was 0.0162 and the maximal growth rate [33] was 0.0748. The maximal growth rate [34] was 0.00555 and the maximal growth rate [35] was 0.0797.
